# Laboratory results reported in patent US11542233B2, “Compounds, compositions and methods of use” (Aquinnah Pharmaceuticals, Inc., priority 2016, dated 2023).
# System: TDP-43 aggregation in PC12 cells stably expressing GFP-tagged mutant TDP-43 (TDP-43^Q33IK::eGFP)
# Test: In vitro efficacy assay: inhibition of TDP-43 inclusions, concentration-response, fluorescence microscopy
# Assay type: cell-based
# Settings: Rattus norvegicus, PC-12, PC12 cells, 1 hour pre-treatment, 15 μM sodium arsenite for 23 hours, 10-point dose response curve
# Outline: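 PC12 cells stably expressing TDP-43^Q33IK::eGFP pre-treated 1 h with compound, then stressed with 15 μM sodium arsenite for 23 h. Fluorescence microscopy gave the fraction of GFP-positive cells bearing aggregates; IC50 from concentration-response, reported in bins: A <100 nM, B 100–500 nM, C 500 nM–2 μM, D >2 μM.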
row,Structure (SMILES),IC50
1,"C#CCOc1ccc(CN[C@@H]2CCC[C@H](N(CC)C(=O)c3nc4cc([N+](=O)[O-])ccc4[nH]3)C2)cc1 [Compound 561, N-ethyl-5-nitro-N-((1S,3R)-3-((4-(prop-2-yn-1-yloxy)benzyl)amino)cyclohexyl)-1H-benzo[d]imidazole-2-carboxamide]",< 100 nM
2,O=C(c1cc2ncccc2[nH]1)N(CC(F)(F)F)[C@H]1CCC[C@@H](NCc2ccc(F)cc2)C1 [Compound 423],< 100 nM
3,O=C(c1cc2ccccc2[nH]1)N(CC(F)(F)F)[C@H]1COC[C@H](NCc2ccccc2)C1 [Compound 303],> 2000 nM
4,CCN(C(=O)c1nc2cc(F)ccc2[nH]1)[C@H]1CCC[C@@H](NCc2ccc(C#N)cc2)C1 [Compound 527],< 100 nM
5,CCN(C(=O)c1nc2ccccc2[nH]1)[C@H]1CCC[C@@H](NCc2ccc3cncn3c2)C1 [Compound 492],< 100 nM
6,"CCN(C(=O)c1nc2ccccc2[nH]1)[C@H]1CCC[C@@H](NCc2cc(C3CC3)on2)C1 [Compound 515, N-((1S,3R)-3-(((5-cyclopropylisoxazol-3-yl)methyl)amino)cyclohexyl)-N-ethyl-1H-benzo[d]imidazole-2-carboxamide]",< 100 nM
7,CCN(C(=O)c1cc2ncccc2[nH]1)[C@H]1CCC[C@@H](NCc2cc(C3CC3)no2)C1 [Compound 435],< 100 nM
8,CCN(C(=O)c1nc2ccccc2[nH]1)[C@H]1CCC[C@@H](NCc2ccc3oc(C)nc3c2)C1 [Compound 531],100 to 500 nM
9,CCN(C(=O)c1cc2cc(F)ccc2[nH]1)[C@H]1CCC[C@@H](NCc2cc3ccccc3o2)C1 [Compound 550],< 100 nM
10,CCN(C(=O)c1cc2ncccc2[nH]1)[C@H]1CCC[C@@H](NCc2cnn(C)c2)C1 [Compound 448],< 100 nM
11,CCN(C(=O)c1nc2cc(F)ccc2[nH]1)[C@H]1CCC[C@@H](NCc2cc3ccccc3o2)C1 [Compound 523],< 100 nM
12,CCN(C(=O)c1cc2ncccc2[nH]1)[C@H]1CCC[C@@H](NC(C)(C)c2ccc(F)cc2)C1 [Compound 410],< 100 nM
13,O=C(c1cc2ccccc2[nH]1)N(CC(F)(F)F)[C@H]1CCC[C@H](NCc2ccc(F)cc2)C1 [Compound 180],500 to 2000 nM
14,C#CCOc1cccc(CN[C@@H]2CCC[C@H](N(CC)C(=O)c3nc4c(N=[N+]=[N-])cccc4[nH]3)C2)c1 [Compound 560],< 100 nM
15,"C#CCCC1(CCOc2ccc(CN[C@@H]3CCC[C@H](N(CC)C(=O)c4cc5ccccc5[nH]4)C3)cc2)N=N1 [Compound 425, N-((1S,3R)-3-((4-(2-(3-(but-3-yn-1-yl)-3H-diazirin-3-yl)ethoxy)benzyl)amino)cyclohexyl)-N-ethyl-1H-indole-2-carboxamide]",100 to 500 nM
16,CCN(C(=O)c1nc2ccccc2[nH]1)[C@H]1CCC[C@@H](NCc2cc3ccccc3o2)C1 [Compound 479],< 100 nM
17,CCN(C(=O)c1cc2ccccc2[nH]1)[C@H]1CCC[C@@H](Nc2nnc(C)s2)C1 [Compound 500],> 2000 nM

# The remaining lines, values ahead:
row,IC50,Structure (SMILES)
1,< 100 nM,CCN(C(=O)c1cc2cc(C3CC3)ccc2[nH]1)[C@H]1CCC[C@@H](NCc2ccccc2)C1 [Compound 543]
2,< 100 nM,CCN(C(=O)c1cc2c(OC)cccc2[nH]1)[C@H]1CCC[C@@H](NCc2ccccc2)C1 [Compound 129]
3,500 to 2000 nM,CCN(C(=O)c1cc2ccccc2[nH]1)[C@H]1CCC[C@H](NCc2ccccc2)C1 [Compound 102]
4,< 100 nM,CCN(C(=O)c1nc2c(F)cccc2[nH]1)[C@H]1CCC[C@@H](NCc2ccccc2)C1 [Compound 482]
5,100 to 500 nM,CCN(C(=O)c1cc2ccccc2[nH]1)[C@H]1CCC[C@@H](NCc2cnc(Cl)nc2)C1 [Compound 133]
6,< 100 nM,"CCN(C(=O)c1cc2cc(F)ccc2[nH]1)[C@H]1CCC[C@@H](NCc2ccccc2)C1 [Compound 547, N-((1S,3R)-3-(benzylamino)cyclohexyl)-N-ethyl-5-fluoro-1H-indole-2-carboxamide]"
7,100 to 500 nM,CCN(C(=O)c1cc2ccccc2[nH]1)[C@H]1CCC[C@@H](NCc2cnc(C)nc2)C1 [Compound 131]
8,100 to 500 nM,CCN(C(=O)c1cc2ccccc2[nH]1)[C@H]1CCC[C@@H](NCc2ccncn2)C1 [Compound 137]
9,> 2000 nM,"CCN(C(=O)c1cc2ccccc2[nH]1)[C@@H]1C[C@H](NCc2ccccc2)CS(=O)(=O)C1 [Compound 313, N-((3R,5S)-5-(benzylamino)-1,1-dioxidotetrahydro-2H-thiopyran-3-yl)-N-ethyl-1H-indole-2-carboxamide]"
10,< 100 nM,CCN(C(=O)c1cc2ccccc2[nH]1)[C@H]1CCC[C@@H](NCc2cc(C)on2)C1 [Compound 462]
11,> 2000 nM,CCN(C(=O)c1cc2ccccc2[nH]1)[C@H]1CCC[C@@H](NCc2ccnc(O)c2)C1 [Compound 452]
12,< 100 nM,"CCN(C(=O)c1cc2ccccc2[nH]1)[C@H]1CCC[C@@H](NCc2ccc(F)cc2)C1 [Compound 123, N-ethyl-N-((1S,3R)-3-((4-fluorobenzyl)amino)cyclohexyl)-1H-indole-2-carboxamide]"
13,100 to 500 nM,"CCN(C(=O)c1cc2ncccc2[nH]1)[C@H]1CCC[C@@H](NC2(c3ccccc3)CC2)C1 [Compound 418, N-ethyl-N-((1S,3R)-3-((1-phenylcyclopropyl)amino)cyclohexyl)-1H-pyrrolo[3,2-b]pyridine-2-carboxamide]"
14,< 100 nM,CCN(C(=O)c1cc2cc(C(F)(F)F)ccc2[nH]1)[C@H]1CCC[C@@H](NCc2ccccc2)C1 [Compound 544]
15,< 100 nM,"CCN(C(=O)c1cc2ncccc2[nH]1)[C@H]1CCC[C@@H](NCc2cccc(F)c2)C1 [Compound 150, N-ethyl-N-((1S,3R)-3-((3-fluorobenzyl)amino)cyclohexyl)-1H-pyrrolo[3,2-b]pyridine-2-carboxamide]"
16,500 to 2000 nM,"O=C(c1cc2ccccc2[nH]1)N(CC(F)(F)F)[C@H]1CCC[C@H](NCc2cccc(F)c2)C1 [Compound 172, N-((1S,3S)-3-((3-fluorobenzyl)amino)cyclohexyl)-N-(2,2,2-trifluoroethyl)-1H-indole-2-carboxamide]"
17,500 to 2000 nM,"CCN(C(=O)c1cc2ccccc2[nH]1)[C@H]1CCC[C@@H](NCc2nccs2)C1 [Compound 465, N-ethyl-N-((1S,3R)-3-((thiazol-2-ylmethyl)amino)cyclohexyl)-1H-indole-2-carboxamide]"
18,100 to 500 nM,CCN(C(=O)c1cc2cnccc2[nH]1)[C@H]1CCC[C@@H](NCc2ccccc2)C1 [Compound 401]
19,100 to 500 nM,CCN(C(=O)c1cc2ccccc2[nH]1)[C@H]1CCC[C@@H](NCc2nc3ccccc3s2)C1 [Compound 451]
20,< 100 nM,CCN(C(=O)c1nc2ccccc2[nH]1)[C@H]1CCC[C@@H](NCc2cccc(OC)c2)C1 [Compound 477]
21,< 100 nM,CCN(C(=O)c1nc2ccccc2[nH]1)[C@H]1CCC[C@@H](NCc2ccc(F)cc2)C1 [Compound 475]
22,100 to 500 nM,"CCN(C(=O)c1cc2ccccc2[nH]1)[C@H]1COC[C@@H](NCc2ccccc2)C1 [Compound 300, N-((3R,5S)-5-(benzylamino)tetrahydro-2H-pyran-3-yl)-N-ethyl-1H-indole-2-carboxamide]"
23,< 100 nM,CCN(C(=O)c1cc2ccccc2[nH]1)[C@H]1CCC[C@@H](NCc2ccc(Cl)cc2)C1 [Compound 135]
24,< 100 nM,CCN(C(=O)c1cc2c(OC)cccc2[nH]1)[C@H]1CCC[C@@H](NCc2oc3ccccc3c2C#N)C1 [Compound 498]
